What all share (assay type): in vivo
Assay [1] deals with Echinochloa crus-galli. Nature of the assay: Greenhouse post-emergence (POST) herbicidal test on ECHCG. The note with it: for % activity: ECHCG POST. How it is done: (§1) The culture containers used were plastic pots containing loamy sand with approximately 3.0% of humus as substrate. The seeds of the test plants were sown separately for each species.
(§2) For the post-emergence treatment, the test plants were grown to a plant height of from 3 to 15 cm, depending on the plant habit, and only then treated with the active compounds which had been suspended or emulsified in water. To this end, the test plants were either sown directly, and grown in the same containers, or they were first grown separately as seedlings and transplanted into the test containers a few days prior to treatment.
(§3) Depending on the species, the plants were kept at 10-25° C. and 20-35° C., respectively.
(§4) The test period extended over 2 to 4 weeks. During this time, the plants were tended and their response to the individual treatments was evaluated.
(§5) Evaluation was carried out using a scale from 0 to 100. 100 means no emergence of the plants, or complete destruction of at least the above-ground parts, and 0 means no damage or normal course of growth. A good herbicidal activity is given at values of at least 70, and very good herbicidal activity is given at values of at least 85.
(§6) If not stated differently, the respective components A and B, and if appropriate, C were formulated as a 5% by weight strength emulsion concentrate and, with addition of the amount of solvent system, introduced into the spray liquor used for applying the active compound.
(§7) As indicated application was either post emergent (POST) at the respective growth stage (GS) of the weed (BBCH code), or pre-emergent (PRE). […]

For assay [2], the system named is Euphorbia heterophylla. Kind of assay: Greenhouse post-emergence (POST) herbicidal test on EPHHL. As to the method: as §1, §2, §3, §4, §5, §6, §7
Another assay relates to Geranium pusillum. Nature of the assay: Greenhouse post-emergence (POST) herbicidal test on GERPU. The note with it: for % activity: GERPU POST. As to the method: as §1, §2, §3, §4, §5, §6, §7
The subject of assay [3] is Abutilon theophrasti. Kind of assay: Greenhouse pre-emergence (PRE) herbicidal test on ABUTH. The note with it: for % activity: 20 DAT. How it is done:
as §1
(§8) The containers were irrigated gently to promote germination and growth and subsequently covered with transparent plastic hoods until the plants had rooted.
as §3, §4, §5, §7

The next assay deals with Alopecurus myosuroides. Nature of the assay: Greenhouse pre-emergence (PRE) herbicidal test on ALOMY. The note with it: Alopecurus myosuroides, pre-emergence, 432 h, read-out: % activity. As to the method: as §1, §8, §3, §4, §5, §7
The subject of a further assay is Commelina benghalensis. Kind of assay: Greenhouse pre-emergence (PRE) herbicidal test on COMBE. How it is done:
as §1, §8, §3, §4, §5, §7

Assay [4] relates to Echinochloa crus-galli. Kind of assay: Greenhouse pre-emergence (PRE) herbicidal test on ECHCG. The note with it: Echinochloa crus-galli, pre-emergence, 432 h, read-out: % activity. As to the method:
as §1, §8, §3, §4, §5, §7

For assay [5], the system named is Euphorbia heterophylla. Nature of the assay: Greenhouse pre-emergence (PRE) herbicidal test on EPHHL. The note with it: Euphorbia heterophylla, pre-emergence. As to the method: as §1, §8, §3, §4, §5, §7
Another assay concerns Lolium multiflorum. Nature of the assay: Greenhouse pre-emergence (PRE) herbicidal test on LOLMU. The note with it: Lolium multiflorum, pre-emergence, read-out: % activity. How it is done: as §1, §8, §3, §4, §5, §7
Another assay deals with Amaranthus retroflexus. Nature of the assay: Greenhouse post-emergence (POST) herbicidal test on AMARE. As to the method: as §1, §2, §3, §4, §5, §6, §7
For another assay, the system named is Digitaria sanguinalis. Kind of assay: Greenhouse post-emergence (POST) herbicidal test on DIGSA. How it is done: as §1, §2, §3, §4, §5, §6, §7
The subject of assay [6] is Abutilon theophrasti. Kind of assay: Greenhouse post-emergence (POST) herbicidal test on ABUTH. The note with it: for % activity: ABUTH POST. How it is done: as §1, §2, §3, §4, §5, §6, §7
Another assay relates to Setaria viridis. Kind of assay: Greenhouse pre-emergence (PRE) herbicidal test on SETVI.
Excerpt: as §1
For the pre-emergence treatment, the active compounds, suspended or emulsified in water, were applied directly after sowing by means of finely distributing nozzles. The containers were irrigated gently to promote germination and growth and subsequently covered with transparent plastic hoods until the plants had rooted. This cover caused uniform germination of the test plants unless this was adversely affected by the active compounds.
as §3, §4, §5, §6, §7

In the next assay the test system is Ambrosia artemisiifolia. Kind of assay: Greenhouse pre-emergence (PRE) herbicidal test on AMBEL. The note with it: PRE, AMBEL. How it is done: as §1, §8, §3, §4, §5, §7
Setting [7] is: Digitaria sanguinalis, post-emergence, 432 h, read-out: % activity.
The mark [8] stands for this setting: Geranium pusillum, post-emergence, 432 h, read-out: % activity.
[9] abbreviates: Abutilon theophrasti, pre-emergence, read-out: % activity.
Where [10] appears, read: Echinochloa crus-galli, post-emergence, 480 h, read-out: % activity.

The structures appear in SMILES notation.

Regarding `O=C(O)COc1ccc(Cl)cc1Cl` [2,4-D], the “% activity” value in the assay on Echinochloa crus-galli [1] (use rate 37.5 gai/ha) was 20%; in the assay with Euphorbia heterophylla [2] (EPHHL POST, use rate 150 gai/ha) it was 65%; with Geranium pusillum (use rate 150 gai/ha) it was 70%.

On to `N#Cc1cc(Br)c(O)c(Br)c1` [Bromoxynil, bromoxynil], for which the pest or weed control at 120 g/ha with Abutilon theophrasti [3] (Abutilon theophrasti, pre-emergence, 432 h, read-out: % activity) was 0%; in the assay with Alopecurus myosuroides, 0%; with Echinochloa crus-galli [4], 0%; with Lolium multiflorum (432 h) it was 0%; in the assay with Digitaria sanguinalis (setting [7]), 15%; in the assay with Geranium pusillum (setting [8]), 20%. Further, the pest or weed control at 30 g/ha is 0% in the assay with Alopecurus myosuroides; 0% with Commelina benghalensis (Commelina benghalensis, pre-emergence, 432 h, read-out: % activity); 0% in the assay with Echinochloa crus-galli [4]; 0% with Euphorbia heterophylla [5] (432 h, read-out: % activity); 0% in the assay on Lolium multiflorum (432 h); 0% in the assay on Amaranthus retroflexus (Amaranthus retroflexus, post-emergence, 432 h, read-out: % activity). Further, the pest or weed control at 30 g/ha with Digitaria sanguinalis (setting [7]) worked out at 0%; in the assay on Echinochloa crus-galli [1] (Echinochloa crus-galli, post-emergence, 432 h, read-out: % activity), 0%; with Euphorbia heterophylla [2] (Euphorbia heterophylla, post-emergence, 432 h, read-out: % activity) it was 70%; in the assay with Geranium pusillum (setting [8]), 5%.

Take `COc1c(Cl)ccc(Cl)c1C(=O)O` [Dicamba, dicamba]: the inhibition at 31.25 g/ha was found to be 60% in the assay with Abutilon theophrasti [6] (Abutilon theophrasti, post-emergence, POST, ABUTH, use rate 31.25 gai/ha) and 10% with Euphorbia heterophylla [2] (Euphorbia heterophylla, post-emergence, POST, EPHHL, use rate 31.25 gai/ha). Moreover, the inhibition at 62.5 g/ha stood at 65% in the assay with Abutilon theophrasti [6] (Abutilon theophrasti, post-emergence, POST, ABUTH, use rate 62.5 gai/ha) and 35% in the assay on Euphorbia heterophylla [2] (Euphorbia heterophylla, post-emergence, POST, EPHHL, use rate 62.5 gai/ha).

On to `C/C(=N\NC(=O)Nc1cc(F)cc(F)c1)c1ncccc1C(=O)O` [Diflufenzopyr, diflufenzopyr], for which the inhibition at 3.8 g/ha in the assay with Abutilon theophrasti [3] (setting [9]), in the assay with Euphorbia heterophylla [5] (read-out: % activity) and in the assay with Lolium multiflorum was 0% in each case. The inhibition at 15 g/ha in the assay on Abutilon theophrasti [3] (setting [9]) turned out to be 0%; with Setaria viridis (Setaria viridis, pre-emergence, read-out: % activity), 50%.

Take `COC[C@H](C)N(C(=O)CCl)c1c(C)csc1C` [Dimethenamid-P, dimethenamid-P]: the “% activity” value in the assay with Abutilon theophrasti [6] (use rate 50 gai/ha) turned out to be 0%; in the assay with Abutilon theophrasti [6] (use rate 200 gai/ha) it was 25%; in the assay on Amaranthus retroflexus (AMARE POST, use rate 200 gai/ha), 0%.

As to `CP(=O)(O)CCC(N)C(=O)O` (centres unmarked) [Glufosinate-Ammonium, glufosinate-ammonium], the inhibition at 75 g/ha with Abutilon theophrasti [6] (Abutilon theophrasti, post-emergence, 480 h, read-out: % activity) came to 30%; with Echinochloa crus-galli [1] (setting [10]), 0%; in the assay on Geranium pusillum (Geranium pusillum, post-emergence, 480 h, read-out: % activity), 35%. Also, the inhibition at 150 g/ha with Digitaria sanguinalis (Digitaria sanguinalis, post-emergence, 480 h, read-out: % activity) turned out to be 95%; in the assay on Echinochloa crus-galli [1] (setting [10]), 30%; in the assay on Euphorbia heterophylla [2] (Euphorbia heterophylla, post-emergence, 480 h, read-out: % activity), 45%.

As to `CCCC(=NOCC(C)Oc1ccc(Cl)cc1)C1=C(O)CC(C2CCCSC2)CC1=O` (centres unmarked) [Profoxydim, profoxydim], the “% activity” value with Abutilon theophrasti [6] (use rate 6.3 gai/ha) amounted to 20%; in the assay on Digitaria sanguinalis (DIGSA POST, use rate 6.3 gai/ha) it was 60%; in the assay with Echinochloa crus-galli [1] (use rate 6.3 gai/ha), 80%; in the assay with Echinochloa crus-galli [1] (use rate 12.5 gai/ha), 85%; in the assay on Geranium pusillum (use rate 6.3 gai/ha), 0%.

As for `C#CC(C)(C)NC(=O)c1cc(Cl)cc(Cl)c1` [Propyzamide, propyzamide], the pest or weed control at 250 g/ha amounted to 0% with Abutilon theophrasti [3] (Abutilon theophrasti, pre-emergence, 432 h, PRE, ABUTH, Propyzamide solo 250 gai/ha, 18 DAT); 0% with Ambrosia artemisiifolia (Ambrosia artemisiifolia, pre-emergence, 432 h, Propyzamide solo 250 gai/ha, 18 DAT, read-out: % activity); 10% with Euphorbia heterophylla [5] (432 h, PRE, EPHHL, Propyzamide solo 250 gai/ha, 18 DAT, read-out: % activity); 20% in the assay on Amaranthus retroflexus (Amaranthus retroflexus, post-emergence, 432 h, POST, AMARE, Propyzamide solo 250 gai/ha, 18 DAT, read-out: % activity); 0% with Echinochloa crus-galli [1] (Echinochloa crus-galli, post-emergence, 432 h, POST, ECHCG, Propyzamide solo 250 gai/ha, 18 DAT, read-out: % activity); 0% in the assay on Euphorbia heterophylla [2] (Euphorbia heterophylla, post-emergence, 432 h, POST, EPHHL, Propyzamide solo 250 gai/ha, 18 DAT, read-out: % activity). Further, the pest or weed control at 1000 g/ha in the assay on Abutilon theophrasti [3] (Abutilon theophrasti, pre-emergence, 432 h, PRE, ABUTH, Propyzamide solo 1000 gai/ha, 18 DAT) was 10%; with Euphorbia heterophylla [5] (432 h, PRE, EPHHL, Propyzamide solo 1000 gai/ha, 18 DAT) it was 15%; in the assay with Abutilon theophrasti [6] (Abutilon theophrasti, post-emergence, 432 h, POST, ABUTH, Propyzamide solo 1000 gai/ha, 18 DAT) it was 5%; in the assay with Amaranthus retroflexus (Amaranthus retroflexus, post-emergence, 432 h, POST, AMARE, Propyzamide solo 1000 gai/ha, 18 DAT), 50%; with Echinochloa crus-galli [1] (Echinochloa crus-galli, post-emergence, 432 h, POST, ECHCG, Propyzamide solo 1000 gai/ha, 18 DAT), 30%; in the assay with Geranium pusillum (Geranium pusillum, post-emergence, 432 h, POST, GERPU, Propyzamide solo 1000 gai/ha, 18 DAT) it was 20%.

Take `COc1cc(OC)n2nc(NS(=O)(=O)c3c(C(F)(F)F)ccnc3OC)nc2n1` [Pyroxsulam, pyroxsulam]: the “% activity” value in the assay with Abutilon theophrasti [3] (PRE, ABUTH, Pyroxsulam solo 0.25 gai/ha) is 0%; in the assay with Abutilon theophrasti [3] (PRE, ABUTH, Pyroxsulam solo 0.5 gai/ha), 5%; with Ambrosia artemisiifolia (Pyroxsulam solo 0.25 gai/ha, 20 DAT) it was 15%; in the assay on Commelina benghalensis (PRE, COMBE, Pyroxsulam solo 0.25 gai/ha, 20 DAT), 10%; with Setaria viridis (PRE, SETVI, Pyroxsulam solo 0.25 gai/ha, 20 DAT), 10%.

These data come from patent US20260007133A1, “HERBICIDAL COMPOSITION COMPRISING AZINE COMPOUNDS” (BASF SE, priority 2022, published 2026).
